Laboratory results: ChEMBL document CHEMBL3758139, “Novel thiol-based histone deacetylase inhibitors bearing 3-phenyl-1H-pyrazole-5-carboxamide scaffold as surface recognition motif: Design, synthesis and SAR study” (Bioorg Med Chem Lett, 2016)

How the values were obtained:
[1] = molecular target: Histone deacetylase 1 (Homo sapiens, UniProt Q13547); test: Inhibition of HDAC1 (unknown origin)
[2] = molecular target: Histone deacetylase 3 (Homo sapiens, UniProt O15379); test: Inhibition of HDAC3 (unknown origin)
[3] = molecular target: Histone deacetylase 2 (Homo sapiens, UniProt Q92769); test: Inhibition of HDAC2 (unknown origin)
[4] = molecular target: T1, Protein deacetylase HDAC6 (Homo sapiens, UniProt Q9UBN7); test: Inhibition of HDAC6 (unknown origin)
T1 sequence (Q9UBN7 whole entry): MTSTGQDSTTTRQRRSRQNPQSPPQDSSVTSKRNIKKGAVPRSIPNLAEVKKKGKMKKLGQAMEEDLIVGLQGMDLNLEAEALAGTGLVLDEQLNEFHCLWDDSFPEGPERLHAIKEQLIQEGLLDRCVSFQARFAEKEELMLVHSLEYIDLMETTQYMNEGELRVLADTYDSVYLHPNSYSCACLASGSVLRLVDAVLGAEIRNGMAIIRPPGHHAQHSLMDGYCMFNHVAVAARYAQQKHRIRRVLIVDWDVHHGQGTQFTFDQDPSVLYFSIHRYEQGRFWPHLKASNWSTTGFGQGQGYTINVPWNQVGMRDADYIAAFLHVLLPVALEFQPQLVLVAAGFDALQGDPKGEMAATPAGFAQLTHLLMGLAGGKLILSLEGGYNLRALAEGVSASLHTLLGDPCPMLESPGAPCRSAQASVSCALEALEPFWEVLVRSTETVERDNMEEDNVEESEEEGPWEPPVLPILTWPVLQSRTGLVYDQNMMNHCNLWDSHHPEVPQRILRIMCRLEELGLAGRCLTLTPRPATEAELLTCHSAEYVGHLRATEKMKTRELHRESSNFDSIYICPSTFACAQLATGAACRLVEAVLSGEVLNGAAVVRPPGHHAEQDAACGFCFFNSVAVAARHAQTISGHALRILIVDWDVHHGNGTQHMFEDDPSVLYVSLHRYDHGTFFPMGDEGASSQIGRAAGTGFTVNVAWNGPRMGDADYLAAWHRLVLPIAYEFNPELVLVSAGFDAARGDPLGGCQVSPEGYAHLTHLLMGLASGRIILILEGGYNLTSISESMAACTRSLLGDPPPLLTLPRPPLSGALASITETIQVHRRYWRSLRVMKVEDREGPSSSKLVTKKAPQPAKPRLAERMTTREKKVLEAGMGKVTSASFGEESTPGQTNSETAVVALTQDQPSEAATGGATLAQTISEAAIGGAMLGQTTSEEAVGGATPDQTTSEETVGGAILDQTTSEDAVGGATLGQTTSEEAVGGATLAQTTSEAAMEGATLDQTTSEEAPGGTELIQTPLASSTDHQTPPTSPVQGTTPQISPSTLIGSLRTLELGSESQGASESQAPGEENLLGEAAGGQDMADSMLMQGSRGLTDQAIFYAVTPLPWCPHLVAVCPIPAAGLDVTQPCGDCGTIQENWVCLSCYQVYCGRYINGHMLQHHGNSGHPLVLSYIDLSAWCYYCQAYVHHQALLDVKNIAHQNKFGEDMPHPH

[5] = molecular target: Histone deacetylase 4 (Homo sapiens, UniProt P56524); test: Inhibition of HDAC4 (unknown origin)
[6] = molecular target: T2, Histone deacetylase 8 (Homo sapiens, UniProt Q9BY41); test: Inhibition of HDAC8 (unknown origin)
T2 sequence (Q9BY41 whole entry): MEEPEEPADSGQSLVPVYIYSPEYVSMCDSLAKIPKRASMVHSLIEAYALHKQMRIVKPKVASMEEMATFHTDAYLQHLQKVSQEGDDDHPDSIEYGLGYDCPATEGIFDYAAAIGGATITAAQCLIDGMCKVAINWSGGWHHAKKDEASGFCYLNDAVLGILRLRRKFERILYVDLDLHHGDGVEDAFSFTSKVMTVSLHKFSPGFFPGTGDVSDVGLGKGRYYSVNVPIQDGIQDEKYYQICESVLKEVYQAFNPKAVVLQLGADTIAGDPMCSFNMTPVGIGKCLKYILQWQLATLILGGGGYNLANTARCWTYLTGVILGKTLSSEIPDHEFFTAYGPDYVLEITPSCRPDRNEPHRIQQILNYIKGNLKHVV

Sequence of Histone deacetylase 2 (Q92769 whole entry): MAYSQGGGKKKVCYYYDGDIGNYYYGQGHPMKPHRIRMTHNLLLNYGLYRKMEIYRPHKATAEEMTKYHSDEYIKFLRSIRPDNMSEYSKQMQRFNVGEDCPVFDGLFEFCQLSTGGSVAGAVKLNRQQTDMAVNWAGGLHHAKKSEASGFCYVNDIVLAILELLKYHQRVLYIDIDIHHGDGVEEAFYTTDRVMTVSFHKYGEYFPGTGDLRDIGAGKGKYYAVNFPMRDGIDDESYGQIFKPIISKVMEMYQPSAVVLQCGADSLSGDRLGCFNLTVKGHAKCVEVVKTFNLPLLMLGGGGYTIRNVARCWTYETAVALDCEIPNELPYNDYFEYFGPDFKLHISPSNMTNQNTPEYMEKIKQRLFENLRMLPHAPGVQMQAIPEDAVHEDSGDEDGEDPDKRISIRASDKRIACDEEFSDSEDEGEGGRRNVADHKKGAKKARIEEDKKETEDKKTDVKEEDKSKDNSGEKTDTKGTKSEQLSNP
Sequence of Histone deacetylase 4 (P56524 whole entry): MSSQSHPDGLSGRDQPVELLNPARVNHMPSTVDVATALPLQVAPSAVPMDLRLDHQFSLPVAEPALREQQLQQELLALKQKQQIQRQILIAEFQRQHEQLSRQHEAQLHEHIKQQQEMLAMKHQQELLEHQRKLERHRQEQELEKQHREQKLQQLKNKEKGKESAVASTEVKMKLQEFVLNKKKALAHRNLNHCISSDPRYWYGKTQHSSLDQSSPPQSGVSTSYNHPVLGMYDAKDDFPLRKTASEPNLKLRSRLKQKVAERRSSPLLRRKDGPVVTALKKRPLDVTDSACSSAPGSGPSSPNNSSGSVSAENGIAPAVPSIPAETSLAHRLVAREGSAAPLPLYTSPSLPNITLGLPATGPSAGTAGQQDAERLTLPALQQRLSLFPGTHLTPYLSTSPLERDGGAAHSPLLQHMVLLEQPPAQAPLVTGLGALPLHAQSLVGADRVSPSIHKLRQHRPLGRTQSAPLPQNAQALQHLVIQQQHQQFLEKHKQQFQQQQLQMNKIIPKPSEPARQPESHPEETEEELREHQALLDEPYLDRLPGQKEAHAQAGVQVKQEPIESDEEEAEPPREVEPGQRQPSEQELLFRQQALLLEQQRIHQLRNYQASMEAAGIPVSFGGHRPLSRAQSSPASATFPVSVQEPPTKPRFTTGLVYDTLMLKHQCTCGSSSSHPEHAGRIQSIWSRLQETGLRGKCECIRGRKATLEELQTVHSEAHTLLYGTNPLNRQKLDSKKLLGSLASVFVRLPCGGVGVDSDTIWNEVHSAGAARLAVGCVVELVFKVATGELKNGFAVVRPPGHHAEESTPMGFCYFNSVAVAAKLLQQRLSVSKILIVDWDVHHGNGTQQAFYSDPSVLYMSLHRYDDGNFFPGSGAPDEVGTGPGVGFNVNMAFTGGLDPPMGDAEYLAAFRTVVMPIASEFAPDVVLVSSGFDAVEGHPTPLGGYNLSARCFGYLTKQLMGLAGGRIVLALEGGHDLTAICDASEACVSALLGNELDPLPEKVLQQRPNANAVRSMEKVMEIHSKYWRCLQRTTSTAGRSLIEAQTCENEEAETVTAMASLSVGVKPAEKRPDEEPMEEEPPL
Sequence of Histone deacetylase 3 (O15379 whole entry): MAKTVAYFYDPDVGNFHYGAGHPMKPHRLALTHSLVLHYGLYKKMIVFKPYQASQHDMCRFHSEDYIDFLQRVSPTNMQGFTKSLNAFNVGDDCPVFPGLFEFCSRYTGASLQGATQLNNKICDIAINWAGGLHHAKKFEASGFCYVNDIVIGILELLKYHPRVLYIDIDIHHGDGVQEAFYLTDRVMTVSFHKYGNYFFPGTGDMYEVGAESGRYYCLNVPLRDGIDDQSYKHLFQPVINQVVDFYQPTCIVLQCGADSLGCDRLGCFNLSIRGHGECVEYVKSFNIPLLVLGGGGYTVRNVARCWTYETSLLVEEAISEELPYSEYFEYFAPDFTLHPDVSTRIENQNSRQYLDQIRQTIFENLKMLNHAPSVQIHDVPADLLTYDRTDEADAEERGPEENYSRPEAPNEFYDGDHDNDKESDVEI
Sequence of Histone deacetylase 1 (Q13547 whole entry): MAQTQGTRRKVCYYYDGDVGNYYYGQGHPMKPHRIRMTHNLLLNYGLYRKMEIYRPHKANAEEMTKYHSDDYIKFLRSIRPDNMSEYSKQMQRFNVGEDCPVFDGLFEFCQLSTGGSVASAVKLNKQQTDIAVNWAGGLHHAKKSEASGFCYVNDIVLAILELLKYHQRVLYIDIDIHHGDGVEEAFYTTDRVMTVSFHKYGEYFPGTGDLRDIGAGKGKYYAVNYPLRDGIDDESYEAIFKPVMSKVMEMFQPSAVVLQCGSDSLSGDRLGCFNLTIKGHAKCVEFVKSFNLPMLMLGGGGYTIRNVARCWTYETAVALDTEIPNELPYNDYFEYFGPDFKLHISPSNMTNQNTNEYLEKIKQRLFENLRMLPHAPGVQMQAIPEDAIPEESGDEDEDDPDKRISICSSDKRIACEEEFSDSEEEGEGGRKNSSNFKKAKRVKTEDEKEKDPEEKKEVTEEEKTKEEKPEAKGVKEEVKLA

CC(=O)SCCCCCCNC(=O)c1cc(-c2ccc(F)cc2)nn1C
IC50 [1]: 21 nM
IC50 [2]: 68 nM
IC50 [3]: 140 nM
IC50 [4]: 10000 nM
IC50 [5]: 10000 nM
IC50 [6]: 4200 nM
